Laboratory results as given in patent publication US12662714B2, “Method for separation of adjacent lanthanide elements” (UT-Battelle, LLC, priority 2022, dated 2026).

How the values were obtained:
[1] = Solvent extraction of Lns, separation factor Dy/Nd; conditions: 13 mM Ligand 2 used instead of ligand 1; 0.1 M DGA; 1 M HNO3; 1 h
[2] = Extraction of 14 Lns from aqueous phase into oil phase; conditions: 0.1 M DGA alone; 14 Lns 0.5 mM each; 1 M HNO3
Description: (§1) General procedure: a 500 microliter (μL) aqueous phase consisting of 7 mM Ln(III) (0.5 mM of each Ln(III)) in 1 M HNO3 without or with aqBLPhen 1 (3, 13, or 25 mM) was contacted with an equal volume of organic phase containing 0.1 M DGA (3, 4, or 5). The two phases were contacted in a 1:1 ratio of organic/aqueous by end-over-end rotation in individual 1.8 mL capacity snap-top Eppendorf tubes using a rotating wheel in an airbox set at 25.5±0.5° C. Contacts were performed in triplicate with a contact time of 1 hour. The samples were centrifuged at 1811 g for 2 min at room temperature to separate the phases. Each triplicate was then sub-sampled, using a 300 μL aliquot of the aqueous phase transferred to individual polypropylene tubes and diluted with 2% HNO3 for analysis using ICP-MS or ICP-OES. Two samples of the initial lanthanide solution were similarly prepared.
(§2) The ability of 1 and DGA to separate Lns was evaluated using a two-component, immiscible solvent system: nitric acid (aqueous phase containing 1) and n-dodecane with 10 vol % 1-octanol (oil phase containing DGA). The amount of Ln partitioned from the aqueous phase into the oil phase was measured using inductively coupled plasma optical emission spectroscopy or mass spectrometry. The Ln concentration in each phase was then used to calculate the separation efficiency.
(§3) The percentage of Lns in the aqueous and the oil phases is presented in FIGS. 1a-1i. for each DGA in the absence and presence of the aqueous complexant 1 (E=([Ln1]/[Ln1]0)×100%). The distribution ratios (i.e., D=[Ln1]org/[Ln1]aq) for select Lns are listed in Table 1, which also include selectivities (i.e., SFLn1/Ln2=DLn1/DLn2), for several Ln pairs. An efficient separation of Lns was achieved when DLn1>1 and DLn2<1 or ELn1>50% and ELn2<50%. […] Neither of the three DGAs can separate Lns in a single extraction stage.

[3] = Solvent extraction of Lns, separation factor Gd/La; conditions: 13 mM Ligand 2 used instead of ligand 1; 0.1 M DGA; 1 M HNO3; 1 h
[4] = Solvent extraction of Lns, distribution ratio of Gd; conditions: 13 mM Ligand 2 used instead of ligand 1; 0.1 M DGA; 1 M HNO3; 1 h
[5] = Solvent extraction of Lns, distribution ratio of Nd; conditions: 0.1 M DGA, 1 M HNO3, 1 h
Description: as §1, §2, §3

[6] = Solvent extraction of Lns, distribution ratio of Sm; conditions: 13 mM Ligand 2 used instead of ligand 1; 0.1 M DGA; 1 M HNO3; 1 h
[7] = Solvent extraction of Lns, separation factor Sm/Nd; conditions: 0.1 M DGA, 1 M HNO3, 1 h
Description: as §1, §2, §3

[8] = Solvent extraction of Lns, distribution ratio of La; conditions: 1 M HNO3, 1 h
Description: as §1, §2, §3

[9] = Solvent extraction of Lns, separation factor Tb/Gd; conditions: 0.1 M DGA, 1 M HNO3, 1 h
Description: as §1, §2, §3

[10] = Solvent extraction of Lns, separation factor Nd/Pr; conditions: 13 mM Ligand 2 used instead of ligand 1; 0.1 M DGA; 1 M HNO3; 1 h
[11] = Solvent extraction of Lns, separation factor Dy/Nd; conditions: 0.1 M DGA, 1 M HNO3, 1 h
Description: as §1, §2, §3

[12] = Solvent extraction of Lns, separation factor Sm/Nd; conditions: 13 mM Ligand 2 used instead of ligand 1; 0.1 M DGA; 1 M HNO3; 1 h
[13] = Solvent extraction of Lns, distribution ratio of La; conditions: 13 mM Ligand 2 used instead of ligand 1; 0.1 M DGA; 1 M HNO3; 1 h
[14] = Optimized separation of adjacent Ln pair Nd-Pr with 1 and Ligand 3
Description: The synergistic use of 1 and Ligand 3 was further optimized to maximize the separation of one adjacent Ln pair Nd—Pr using the percentage of Ln extracted as a guide. The separation of Nd and Pr reached equilibrium in less than 1 hour, and the D values for both increased at higher HNO3 and Ligand 3 concentrations (FIGS. 3b and 3c). Ligand 3, being a neutral ligand, requires co-extraction of counterions (i.e., three NO3^−) with Ln; thus, the extraction of Lns with DGA is favored at high nitrate concentration, and the process is reversed at low anion concentration.
The highest selectivity of 4.9±0.2 for Nd—Pr pair was obtained when separating 2.5 mM Nd and Pr, each using 13 mM of 1 in 1 M HNO3 with 0.1 M of Ligand 3 in the oil phase and equilibrating for 30 min at 25.5° C. Next, the recovery of Nd and Pr from each phase after extraction using the 1-Ligand 3-HNO3 system was investigated. […] The charged ligand (CO3^2−) outcompetes neutral ligand 1 in complexing with Ln ions; furthermore, the thermodynamics of the Ln2(CO3)3 formation is highly favorable due to high crystal lattice energy of the salt. The identity of the precipitate was confirmed using Fourier-transform infrared spectroscopy (FTIR), and the results are in good agreement with commercially available Pr and Nd carbonate salts. Ligand 1 remains in the aqueous solution that can be further recycled in the lanthanide separation process.

[15] = Solvent extraction of Lns, distribution ratio of Nd; conditions: 13 mM Ligand 2 used instead of ligand 1; 0.1 M DGA; 1 M HNO3; 1 h
[16] = Solvent extraction of Lns, distribution ratio of Sm; conditions: 0.1 M DGA, 1 M HNO3, 1 h
Description: as §1, §2, §3

[17] = Solvent extraction of Lns, distribution ratio of Gd; conditions: 0.1 M DGA, 1 M HNO3, 1 h
Description: as §1, §2, §3

[18] = Solvent extraction of Lns, separation factor Gd/La; conditions: for SFGd/La separation factor: 0.1 M DGA, 1 M HNO3, 1 h
Description: as §1, §2, §3

[19] = Solvent extraction of Lns, separation factor Nd/Pr; conditions: 0.1 M DGA, 1 M HNO3, 1 h
Description: as §1, §2, §3

Structure (SMILES): CCCCCCCCN(C)C(=O)COCC(=O)N(C)CCCCCCCC [Ligand 3, N,N′-dimethyl-N,N′-di(n-octyl)diglycolamide]
- SFDy/Nd separation factor [1]: 60
- extraction of Lns from the aqueous phase into the oil phase [2]: nearly quantitatively extracted all Lns
- SFGd/La separation factor [3]: 136
- DGd distribution ratio [4]: 360
- DNd distribution ratio ([5]; [1] 0 mM): 558
- DNd distribution ratio ([5]; [1] 3 mM): 11.0
- DNd distribution ratio ([5]; [1] 13 mM): 10.7
- DNd distribution ratio ([5]; [1] 25 mM): 2.34
- DSm distribution ratio [6]: 163
- SFSm/Nd separation factor ([7]; [1] 0 mM): 3.2
- SFSm/Nd separation factor ([7]; [1] 3 mM): 20
- SFSm/Nd separation factor ([7]; [1] 13 mM): 6.4
- SFSm/Nd separation factor ([7]; [1] 25 mM): 18
- DLa distribution ratio ([8]; [1] 0 mM, 0.1 M DGA in n-dodecane with 10 vol % 1-octanol, 0.5 mM each Ln): 71
- DLa distribution ratio ([8]; [1] 3 mM, 0.1 M DGA): 0.59
- DLa distribution ratio ([8]; [1] 13 mM, 0.1 M DGA): 0.28
- DLa distribution ratio ([8]; [1] 25 mM, 0.1 M DGA): 0.23
- SFTb/Gd separation factor ([9]; 13 mM Ligand 2 used instead of ligand 1): 1.6
- SFTb/Gd separation factor ([9]; [1] 0 mM): 1.1
- SFTb/Gd separation factor ([9]; [1] 3 mM): 2.0
- SFTb/Gd separation factor ([9]; [1] 13 mM): 3.0
- SFTb/Gd separation factor ([9]; [1] 25 mM): 3.0
- SFNd/Pr separation factor [10]: 2.3
- SFDy/Nd separation factor ([11]; [1] 0 mM): 4.7
- SFDy/Nd separation factor ([11]; [1] 3 mM): 352
- SFDy/Nd separation factor ([11]; [1] 13 mM): 451
- SFDy/Nd separation factor ([11]; [1] 25 mM): 1313
- SFSm/Nd separation factor [12]: 7.6
- DLa distribution ratio [13]: 2.65
- highest selectivity for Nd-Pr pair ([14]; 2.5 mM Nd and Pr each, 13 mM of 1 in 1 M HNO3, 0.1 M Ligand 3 in oil phase, 30 min, 25.5° C.): 4.9±0.2
- time for the separation of Nd and Pr to reach equilibrium ([14]; 1 and Ligand 3): less than 1 hour
- recovery of Nd and Pr from the spent oil phase ([14]; three consecutive contacts with an equal volume of deionized water): Near-quantitative recovery
- DNd distribution ratio [15]: 21.4
- DSm distribution ratio ([16]; [1] 0 mM): 1795
- DSm distribution ratio ([16]; [1] 3 mM): 222
- DSm distribution ratio ([16]; [1] 13 mM): 68.1
- DSm distribution ratio ([16]; [1] 25 mM): 42.2
- DGd distribution ratio ([17]; [1] 0 mM): 2531
- DGd distribution ratio ([17]; [1] 3 mM): 1192
- DGd distribution ratio ([17]; [1] 13 mM): 552
- DGd distribution ratio ([17]; [1] 25 mM): 346
- SFGd/La separation factor ([18]; [1] 0 mM): 36
- SFGd/La separation factor ([18]; [1] 3 mM): 2010
- SFGd/La separation factor ([18]; [1] 13 mM): 1992
- SFGd/La separation factor ([18]; [1] 25 mM): 1512
- times higher selectivity for Gd over La than the TDdDGA-DOODA(C2) system ([18]; combination of 1 and Ligand 3): ~2 times
- times higher selectivity for Gd over La than the TODGA-DOODA(C2) system ([18]; combination of 1 and Ligand 3): 20 times
- SFNd/Pr separation factor ([19]; [1] 0 mM): 2.1
- SFNd/Pr separation factor ([19]; [1] 3 mM): 4.0
- SFNd/Pr separation factor ([19]; [1] 13 mM): 4.2
- SFNd/Pr separation factor ([19]; [1] 25 mM): 3.2
